Bounds are passed on as bounds.

One data set addresses Dipeptidyl peptidase 2 (Homo sapiens, UniProt Q9UHL4). The data set can be described thus: Inhibition of human recombinant QPP expressed in SF9 cells.
The target in the next data set is Dipeptidyl peptidase 8 (Homo sapiens, UniProt Q6V1X1). Description: Inhibition of human DPP8 after 15 mins by continuous fluorescent assay.
A further data set concerns the target Dipeptidyl peptidase 9 (Homo sapiens, UniProt Q86TI2). Description: Inhibition of human DPP9 after 15 mins by continuous fluorescent assay.
The nature of data set [1]: Plasma clearance in rat at 1 mg/kg, iv or 2 mg/kg, po. In kind it is ADME, organism-based.
The nature of data set [2]: Oral bioavailability in rat at 2 mg/kg, po. In kind it is ADME, organism-based. Conditions: in vivo.
Data set [3] addresses Voltage-gated inwardly rectifying potassium channel KCNH2 (Homo sapiens, UniProt Q12809). The data set can be described thus: Inhibition of cardiac hERG. On the technique in general: hERG is a cardiac potassium channel; its block is linked to QT prolongation.
Data set [4] is described as follows: Plasma clearance in dog at 1 mg/kg, iv or 2 mg/kg, po. In kind it is ADME, organism-based, Canis lupus familiaris.
Data set [5] can be described thus: Oral bioavailability in dog at 2 mg/kg, po. In kind it is ADME, organism-based, Canis lupus familiaris. To be noted: in vivo.
For another data set, the species on record is Mus musculus. The data set can be described thus: Reduction of blood glucose excursion in mouse by OGTT. In kind it is functional, organism-based.

Chain of Voltage-gated inwardly rectifying potassium channel KCNH2 (Q12809 whole entry): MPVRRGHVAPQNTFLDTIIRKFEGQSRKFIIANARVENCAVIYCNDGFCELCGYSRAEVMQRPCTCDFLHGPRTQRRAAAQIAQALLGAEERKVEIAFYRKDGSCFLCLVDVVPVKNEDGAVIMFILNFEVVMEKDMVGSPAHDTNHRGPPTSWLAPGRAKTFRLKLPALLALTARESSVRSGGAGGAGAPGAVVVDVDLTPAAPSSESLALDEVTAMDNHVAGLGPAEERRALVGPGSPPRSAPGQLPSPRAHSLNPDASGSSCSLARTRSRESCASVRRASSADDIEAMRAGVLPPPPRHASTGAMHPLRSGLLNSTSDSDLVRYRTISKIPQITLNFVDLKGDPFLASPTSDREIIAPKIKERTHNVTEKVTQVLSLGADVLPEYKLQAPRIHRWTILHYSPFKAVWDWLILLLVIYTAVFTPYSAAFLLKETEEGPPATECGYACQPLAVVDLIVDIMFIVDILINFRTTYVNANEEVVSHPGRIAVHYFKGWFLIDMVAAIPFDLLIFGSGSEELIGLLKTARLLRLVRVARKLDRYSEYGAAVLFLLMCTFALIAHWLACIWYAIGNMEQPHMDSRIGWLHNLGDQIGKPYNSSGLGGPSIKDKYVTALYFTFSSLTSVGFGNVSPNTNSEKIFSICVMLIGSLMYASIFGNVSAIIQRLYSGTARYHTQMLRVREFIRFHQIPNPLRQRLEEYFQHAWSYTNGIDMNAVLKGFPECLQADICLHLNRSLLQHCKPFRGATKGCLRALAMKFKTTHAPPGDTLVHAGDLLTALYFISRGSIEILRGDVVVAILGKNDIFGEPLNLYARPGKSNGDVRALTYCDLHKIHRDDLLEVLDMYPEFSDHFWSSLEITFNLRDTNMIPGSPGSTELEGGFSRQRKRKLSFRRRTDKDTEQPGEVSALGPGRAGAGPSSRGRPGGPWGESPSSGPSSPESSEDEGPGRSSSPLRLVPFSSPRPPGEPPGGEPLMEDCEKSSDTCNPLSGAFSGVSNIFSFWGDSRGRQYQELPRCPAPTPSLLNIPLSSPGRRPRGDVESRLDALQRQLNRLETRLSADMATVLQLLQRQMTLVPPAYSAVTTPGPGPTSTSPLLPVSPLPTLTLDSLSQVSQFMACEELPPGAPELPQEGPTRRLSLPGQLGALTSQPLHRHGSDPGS
Chain of Dipeptidyl peptidase 9 (Q86TI2 whole entry): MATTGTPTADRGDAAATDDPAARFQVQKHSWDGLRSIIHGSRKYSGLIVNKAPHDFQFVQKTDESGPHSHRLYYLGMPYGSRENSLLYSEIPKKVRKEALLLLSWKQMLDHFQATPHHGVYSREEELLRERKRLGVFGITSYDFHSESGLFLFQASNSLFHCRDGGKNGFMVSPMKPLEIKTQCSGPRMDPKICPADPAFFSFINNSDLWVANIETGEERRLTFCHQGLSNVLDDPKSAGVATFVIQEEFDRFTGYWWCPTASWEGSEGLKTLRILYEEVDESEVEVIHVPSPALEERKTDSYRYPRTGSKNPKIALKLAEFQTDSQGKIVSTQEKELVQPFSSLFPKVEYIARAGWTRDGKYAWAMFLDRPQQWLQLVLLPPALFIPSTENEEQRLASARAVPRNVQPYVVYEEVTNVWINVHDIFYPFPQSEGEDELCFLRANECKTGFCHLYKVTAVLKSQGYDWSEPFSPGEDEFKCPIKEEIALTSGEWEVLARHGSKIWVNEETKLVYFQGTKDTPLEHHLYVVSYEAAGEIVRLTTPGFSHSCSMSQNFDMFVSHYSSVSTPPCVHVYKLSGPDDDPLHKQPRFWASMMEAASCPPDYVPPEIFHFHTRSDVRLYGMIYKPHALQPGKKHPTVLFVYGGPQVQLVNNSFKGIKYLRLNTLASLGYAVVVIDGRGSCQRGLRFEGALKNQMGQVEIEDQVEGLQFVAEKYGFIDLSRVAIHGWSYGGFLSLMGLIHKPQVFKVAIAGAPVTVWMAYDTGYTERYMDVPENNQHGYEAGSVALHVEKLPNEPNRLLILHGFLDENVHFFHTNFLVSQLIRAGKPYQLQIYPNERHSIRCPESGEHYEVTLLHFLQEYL
Chain of Dipeptidyl peptidase 8 (Q6V1X1 whole entry): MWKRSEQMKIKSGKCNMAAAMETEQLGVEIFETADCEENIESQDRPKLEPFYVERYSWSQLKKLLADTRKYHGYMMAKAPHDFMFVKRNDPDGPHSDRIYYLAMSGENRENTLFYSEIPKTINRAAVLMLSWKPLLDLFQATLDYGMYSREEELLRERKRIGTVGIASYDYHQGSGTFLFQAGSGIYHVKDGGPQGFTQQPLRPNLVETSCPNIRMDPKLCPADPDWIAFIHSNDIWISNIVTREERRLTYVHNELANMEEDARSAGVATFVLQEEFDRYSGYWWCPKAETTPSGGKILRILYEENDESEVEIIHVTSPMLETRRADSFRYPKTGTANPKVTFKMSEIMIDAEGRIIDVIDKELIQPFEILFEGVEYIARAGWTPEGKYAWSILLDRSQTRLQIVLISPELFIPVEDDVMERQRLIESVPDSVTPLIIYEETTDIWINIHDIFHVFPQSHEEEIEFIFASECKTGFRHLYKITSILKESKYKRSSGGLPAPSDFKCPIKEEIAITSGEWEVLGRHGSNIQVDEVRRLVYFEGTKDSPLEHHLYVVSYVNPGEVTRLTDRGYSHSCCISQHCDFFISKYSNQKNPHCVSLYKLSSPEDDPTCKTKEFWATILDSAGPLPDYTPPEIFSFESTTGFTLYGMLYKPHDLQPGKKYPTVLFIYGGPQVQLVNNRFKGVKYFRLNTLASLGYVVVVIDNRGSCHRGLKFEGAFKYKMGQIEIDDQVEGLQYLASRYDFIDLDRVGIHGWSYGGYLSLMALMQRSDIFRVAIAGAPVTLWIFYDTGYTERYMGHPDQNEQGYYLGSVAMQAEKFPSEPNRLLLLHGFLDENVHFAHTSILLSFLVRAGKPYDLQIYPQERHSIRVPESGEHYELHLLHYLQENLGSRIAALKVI

As to `CC(=O)N(C)c1ccc([C@H](C(=O)N(C)C)[C@H](N)C(=O)N2CC[C@H](F)C2)cc1`, the IC50 on Dipeptidyl peptidase 2, on Dipeptidyl peptidase 8 and at Dipeptidyl peptidase 9 was greater than 100 µM each time.
In the case of `C[C@@H](C1CCC(N(C)C(=O)C2CC2)CC1)[C@H](N)C(=O)N1CC[C@H](F)C1.Cl` (some centres undefined), the clearance in [1] amounted to 49 mL/min/kg. For the same compound, the bioavailability – broadly, the share of a dose that reaches the circulation, judged against a reference dose that is usually intravenous – in data set [2] came out at 46%.
Take `CC(=O)N(C)c1ccc([C@H](C)[C@H](N)C(=O)N2CC[C@H](F)C2)cc1`: the 50% inhibitory concentration (IC50) against Dipeptidyl peptidase 8 and at Dipeptidyl peptidase 9 was greater than 100 µM throughout.
For the compound `C[C@@H](c1ccc(N(C)C(=O)c2ccc(F)cc2)cc1)[C@H](N)C(=O)N1CC[C@H](F)C1`, the IC50 against Dipeptidyl peptidase 8 and against Dipeptidyl peptidase 9 was greater than 100 µM throughout.
On to `CC(=O)Nc1ccc([C@H](C(=O)N(C)C)[C@H](N)C(=O)N2CC[C@H](F)C2)cc1`, for which the IC50 on Dipeptidyl peptidase 2 and against Dipeptidyl peptidase 9 was greater than 100 µM in each case.
With `CN(C)C(=O)[C@@H](C1CCC(NS(=O)(=O)c2ccc(F)cc2F)CC1)[C@H](N)C(=O)N1CC[C@H](F)C1` (some centres undefined), the IC50 on Dipeptidyl peptidase 8 and against Dipeptidyl peptidase 9 was greater than 100 µM throughout.
On to `CN(C)C(=O)[C@@H](c1ccc(N(C)C(=O)c2ccc(F)cc2)cc1)[C@H](N)C(=O)N1CC[C@H](F)C1.O=C(O)C(F)(F)F`, for which the half-maximal inhibitory concentration (IC50) (as a rule, the concentration needed to halve the response being measured) is greater than 100 µM at Dipeptidyl peptidase 2, greater than 100 µM against Dipeptidyl peptidase 8, greater than 100 µM at Dipeptidyl peptidase 9 and greater than 90 µM in data set [3]. Besides, the clearance in data set [1] came out at 73 mL/min/kg. Also, the bioavailability in data set [2] stood at 6%.
As for `Cc1ccc(C(=O)N(C)c2ccc([C@H](C(=O)N(C)C)[C@H](N)C(=O)N3CC[C@H](F)C3)cc2)cc1`, the IC50 at Dipeptidyl peptidase 2, at Dipeptidyl peptidase 8 and against Dipeptidyl peptidase 9 was greater than 100 µM throughout.
With `Cc1ccc(S(=O)(=O)N(C)c2ccc([C@H](C(=O)N(C)C)[C@H](N)C(=O)N3CC[C@H](F)C3)cc2)cc1`, the 50% inhibitory concentration (IC50) on Dipeptidyl peptidase 2, at Dipeptidyl peptidase 8 and against Dipeptidyl peptidase 9 was greater than 100 µM in each case.
In data set [1], `Cl.N[C@H](C(=O)N1CC[C@H](F)C1)C1CCC(NS(=O)(=O)c2ccc(F)cc2F)CC1` (some centres undefined) yielded a clearance of 24 mL/min/kg.
Turning to `CN(C)C(=O)[C@@H](C1CCC(N(C)C(=O)c2cccc(F)c2)CC1)[C@H](N)C(=O)N1CC[C@H](F)C1.Cl` (some centres undefined), the concentration for half-maximal inhibition (IC50) against Dipeptidyl peptidase 8 is greater than 100 µM; at Dipeptidyl peptidase 9, greater than 100 µM; in [3], greater than 90 µM. This compound also yielded a clearance in data set [1] of 27 mL/min/kg. This compound also showed a bioavailability in data set [2] of 25%.
Consider `C[C@@H](C1CCC(N(C)C(=O)c2cccc(F)c2)CC1)[C@H](N)C(=O)N1CC[C@H](F)C1.Cl` (some centres undefined), for which the clearance in data set [1] is 40 mL/min/kg. In data set [2], this compound had a bioavailability of 72%.
Consider `CN(C)C(=O)[C@@H](C1CCC(NS(=O)(=O)c2ccc(OC(F)(F)F)cc2)CC1)[C@H](N)C(=O)N1CC[C@H](F)C1` (some centres undefined), for which the half-inhibitory concentration (IC50) at Dipeptidyl peptidase 8 and against Dipeptidyl peptidase 9 was greater than 100 µM in each case.
For `CC(=O)N(C)C1CCC([C@H](C(=O)N(C)C)[C@H](N)C(=O)N2CC[C@H](F)C2)CC1.Cl` (some centres undefined), the 50% inhibitory concentration (IC50) against Dipeptidyl peptidase 8 and on Dipeptidyl peptidase 9 was greater than 100 µM in each case. Moreover, the clearance in data set [1] came out at 18 mL/min/kg. The bioavailability in data set [2] was found to be 3%.
Consider `CC(=O)N(C)C1CCC([C@H](C)[C@H](N)C(=O)N2CC[C@H](F)C2)CC1.Cl` (some centres undefined), for which the values for the IC50 (against Dipeptidyl peptidase 9; in data set [3]) were greater than 100 µM and greater than 90 µM, respectively. Also, the values for the clearance in data set [1] and in [4] were 42 mL/min/kg and 4.4 mL/min/kg, respectively. Moreover, the bioavailability was 56% in data set [2] and 83% in data set [5]. The Activity result in the data set filed under Mus musculus was “Dose-dependent effect”.
On Dipeptidyl peptidase 9, `CC(=O)Nc1ccc([C@H](C)[C@H](N)C(=O)N2CC[C@H](F)C2)cc1` gave an IC50 greater than 100 µM.
Turning to `CN(C)C(=O)[C@@H](c1ccc(NS(=O)(=O)c2ccccc2)cc1)[C@H](N)C(=O)N1CC[C@H](F)C1`, the half-inhibitory concentration (IC50) against Dipeptidyl peptidase 8 and at Dipeptidyl peptidase 9 was greater than 100 µM in each case.

The values are drawn from ChEMBL document CHEMBL1139199 (Bioorg Med Chem Lett, 2007).
